Marks after values point to notes of the source that are not given here.
Assay: Solubility study of solid ingredients in DOI and co-solvent
Assay type: physicochemical
Description: Noting the surprising ease with which the various phases incorporating the DOI were prepared, a study was conducted to evaluate whether the DOI was acting as or solvent for or aiding in the solubility of certain of the solid ingredients with which it was combined. In this particular evaluation, the solubility of two solid sunscreen actives, butyl methoxydibenzoylmethane (avobenzone) and benzophenone-3 (“BP3”), and another solid cosmetic active, hexylresorcinol (“HR”) were evaluated in DOI. Additionally, the solubility of avobenzone was further evaluated in C12-C15 alkylbenzoate (“AB”) and in the combination of DOI and C12-C15 alkylbenzoate (70:30)—avobenzone being the sunscreen active and C12-C15 alkylbenzoate a co-solvent of the Sunscreen Formulation of Example 5C above. Each solution was prepared by warming 10 grams of the solvents to ˜45° C., adding the avobenzone and stirring the mixture for at least 20 min to make sure the all of the solid is solubilized. The solutions were then allowed to stand at room temp (˜25 C) and then visually examined for signs of crystal formation at 18 hours and 24 hours. Percent solubility was then calculated.

[1] = room temp (~25 C), visual examination

C12-C15 alkylbenzoate [AB]
Solubility of Avobenzone in the solvent (dissolved at ~45° C., standing at room temp (~25 C)): 23%*
Avobenzone crystal formation, 18 hours [1]: yes
Avobenzone crystal formation, 24 hours [1]: yes

From US20130183257A1, “COMPOSITIONS AND METHODS FOR IMPROVING SKIN APPEARANCE” (SYTHEON LTD., priority 2009, published 2013)
